Experiments:
[1] = biological target: T1, Leukotriene, Cysteinyl CysLT1 (Homo sapiens, UniProt Q9Y271); experiment: Competitive radioligand binding (MDS Pharma)
T1 construct: purchased MDS Pharma (outsourced assay)

[2] = biological target: T2, Leukotriene, Cysteinyl CysLT2 (Homo sapiens, UniProt Q9NS75); experiment: Competitive radioligand binding (MDS Pharma)
T2 construct: purchased MDS Pharma (outsourced assay)

[3] = biological target: T3, Prostanoid, Thromboxane A2 (TP) (Homo sapiens, UniProt P21731); experiment: Competitive radioligand binding (MDS Pharma)
T3 construct: purchased MDS Pharma (outsourced assay)
T3 sequence (P21731 whole entry): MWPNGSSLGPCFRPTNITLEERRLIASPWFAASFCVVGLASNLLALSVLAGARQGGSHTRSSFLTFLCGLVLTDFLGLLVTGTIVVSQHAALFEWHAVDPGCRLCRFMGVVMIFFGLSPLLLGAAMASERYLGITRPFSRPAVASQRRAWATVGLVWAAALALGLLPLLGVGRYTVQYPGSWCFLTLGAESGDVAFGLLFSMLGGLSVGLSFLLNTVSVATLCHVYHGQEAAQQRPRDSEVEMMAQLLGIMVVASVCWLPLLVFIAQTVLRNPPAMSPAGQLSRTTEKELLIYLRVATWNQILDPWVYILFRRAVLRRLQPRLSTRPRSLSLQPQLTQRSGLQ

[4] = biological target: T4, EP4 (Homo sapiens, UniProt P35408); experiment: PGE2 induced CRE-PLAP reporter assay in SE302 cells; type: cell-based; conditions: read-out: IC50 against PGE2 induced CRE-PLAP reporter activity
T4 construct: SE302 cells that express endogenous EP4; endogenous in cells; host or cells: SE302 cells
Description: CRE-PLAP reporter assay. SE302 cells that express endogenous EP4 were stimulated with PGE2 in the presence or absence of ER-819762 for overnight, and PLAP activity was measured.

[5] = biological target: T5, 5-HT2C (Homo sapiens, UniProt P28335); experiment: FLIPR functional screen; type: cell-based; conditions: antagonist mode
T5 construct: purchased Millipore (outsourced screen)
T5 sequence (P28335 33-458): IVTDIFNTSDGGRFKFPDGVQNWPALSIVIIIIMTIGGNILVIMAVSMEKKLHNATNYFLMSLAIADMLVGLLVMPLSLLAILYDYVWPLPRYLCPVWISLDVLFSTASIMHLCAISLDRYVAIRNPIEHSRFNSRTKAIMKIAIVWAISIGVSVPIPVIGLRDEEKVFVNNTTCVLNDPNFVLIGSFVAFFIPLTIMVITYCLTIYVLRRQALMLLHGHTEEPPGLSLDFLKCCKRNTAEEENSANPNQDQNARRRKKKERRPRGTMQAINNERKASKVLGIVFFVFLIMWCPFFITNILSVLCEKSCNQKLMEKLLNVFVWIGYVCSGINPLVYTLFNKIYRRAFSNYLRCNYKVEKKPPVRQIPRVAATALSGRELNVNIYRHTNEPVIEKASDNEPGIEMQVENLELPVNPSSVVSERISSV

[6] = biological target: T6, A1 (Homo sapiens, UniProt P30542); experiment: FLIPR functional screen; type: cell-based; conditions: antagonist mode
T6 construct: purchased Millipore (outsourced screen)

[7] = biological target: T7, A2B (Homo sapiens, UniProt P29275); experiment: FLIPR functional screen; type: cell-based; conditions: antagonist mode
T7 construct: purchased Millipore (outsourced screen)

[8] = biological target: T8, A3 (Homo sapiens, UniProt P0DMS8); experiment: FLIPR functional screen; type: cell-based; conditions: antagonist mode
T8 construct: purchased Millipore (outsourced screen)

[9] = biological target: T9, ADRA2A (Homo sapiens, UniProt P08913); experiment: FLIPR functional screen; type: cell-based; conditions: antagonist mode
T9 construct: purchased Millipore (outsourced screen)

[10] = biological target: T10, ADRB1 (Homo sapiens, UniProt P08588); experiment: FLIPR functional screen; type: cell-based; conditions: antagonist mode
T10 construct: purchased Millipore (outsourced screen)

[11] = biological target: T11, C3AR (Homo sapiens, UniProt Q16581); experiment: FLIPR functional screen; type: cell-based; conditions: antagonist mode
T11 construct: Millipore
T11 sequence (Q16581 whole entry, species assumed): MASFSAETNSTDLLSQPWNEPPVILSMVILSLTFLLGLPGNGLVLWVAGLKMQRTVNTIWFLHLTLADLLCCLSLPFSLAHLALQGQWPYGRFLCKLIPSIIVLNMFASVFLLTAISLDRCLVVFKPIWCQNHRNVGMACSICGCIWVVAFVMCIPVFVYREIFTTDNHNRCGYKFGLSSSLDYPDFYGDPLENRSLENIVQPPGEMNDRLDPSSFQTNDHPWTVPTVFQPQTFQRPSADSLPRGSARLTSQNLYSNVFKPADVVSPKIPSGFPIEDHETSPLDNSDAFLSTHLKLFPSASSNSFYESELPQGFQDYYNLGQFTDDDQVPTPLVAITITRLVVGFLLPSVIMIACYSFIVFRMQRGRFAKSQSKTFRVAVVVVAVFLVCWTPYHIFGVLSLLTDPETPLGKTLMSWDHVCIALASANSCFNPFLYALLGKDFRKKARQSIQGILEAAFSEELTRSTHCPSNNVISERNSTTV

[12] = biological target: T12, C5AR (Homo sapiens, UniProt P21730); experiment: FLIPR functional screen; type: cell-based; conditions: antagonist mode
T12 construct: Millipore

[13] = biological target: T13, CB1 (Homo sapiens, UniProt P21554); experiment: FLIPR functional screen; type: cell-based; conditions: antagonist mode
T13 construct: Millipore

[14] = biological target: T14, CCK2 (Homo sapiens, UniProt P32239); experiment: FLIPR functional screen; type: cell-based; conditions: antagonist mode
T14 construct: Millipore
T14 sequence (P32239 whole entry): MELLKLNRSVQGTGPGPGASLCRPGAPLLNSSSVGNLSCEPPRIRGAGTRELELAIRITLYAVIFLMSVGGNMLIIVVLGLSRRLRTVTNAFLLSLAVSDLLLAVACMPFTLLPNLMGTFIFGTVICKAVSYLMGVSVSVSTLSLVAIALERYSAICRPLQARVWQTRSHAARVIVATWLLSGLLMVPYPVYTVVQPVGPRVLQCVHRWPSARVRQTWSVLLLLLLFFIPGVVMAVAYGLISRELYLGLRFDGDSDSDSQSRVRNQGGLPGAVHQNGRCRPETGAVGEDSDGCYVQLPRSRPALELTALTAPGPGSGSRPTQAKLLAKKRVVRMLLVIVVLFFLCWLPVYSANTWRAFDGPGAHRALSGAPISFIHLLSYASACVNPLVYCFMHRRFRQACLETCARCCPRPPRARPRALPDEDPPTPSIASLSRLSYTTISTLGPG

[15] = biological target: T15, CCR10 (Homo sapiens, UniProt P46092); experiment: FLIPR functional screen; type: cell-based; conditions: antagonist mode
T15 construct: Millipore

[16] = biological target: T16, CCR4 (Homo sapiens, UniProt P51679); experiment: FLIPR functional screen; type: cell-based; conditions: antagonist mode
T16 construct: Millipore

[17] = biological target: T17, CCR9 (Homo sapiens, UniProt P51686); experiment: FLIPR functional screen; type: cell-based; conditions: antagonist mode
T17 construct: Millipore

[18] = biological target: T18, CHEMR23 (Homo sapiens, UniProt Q99788); experiment: FLIPR functional screen; type: cell-based; conditions: antagonist mode
T18 construct: Millipore

[19] = biological target: T19, CRTH2 (Homo sapiens, UniProt Q9Y5Y4); experiment: FLIPR functional screen; type: cell-based; conditions: antagonist mode
T19 construct: Millipore
T19 sequence (Q9Y5Y4 whole entry, species assumed): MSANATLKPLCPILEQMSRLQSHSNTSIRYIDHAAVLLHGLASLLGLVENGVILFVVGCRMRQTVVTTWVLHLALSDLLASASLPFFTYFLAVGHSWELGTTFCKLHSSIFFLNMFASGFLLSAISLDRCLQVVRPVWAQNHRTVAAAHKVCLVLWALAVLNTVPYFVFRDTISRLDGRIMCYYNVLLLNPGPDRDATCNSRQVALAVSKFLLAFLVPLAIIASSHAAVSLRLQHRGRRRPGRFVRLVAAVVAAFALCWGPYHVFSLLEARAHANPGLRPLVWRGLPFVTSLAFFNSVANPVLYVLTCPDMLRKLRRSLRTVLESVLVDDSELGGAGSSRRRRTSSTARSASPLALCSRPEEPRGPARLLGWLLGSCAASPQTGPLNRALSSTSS

[20] = biological target: T20, CX3CR1 (Homo sapiens, UniProt P49238); experiment: FLIPR functional screen; type: cell-based; conditions: antagonist mode
T20 construct: Millipore

[21] = biological target: T21, CXCR1 (Homo sapiens, UniProt P25024); experiment: FLIPR functional screen; type: cell-based; conditions: antagonist mode
T21 construct: Millipore

[22] = biological target: T22, GIPR (Homo sapiens, UniProt P48546); experiment: FLIPR functional screen; type: cell-based; conditions: antagonist mode
T22 construct: Millipore

[23] = biological target: T23, GPR103 (Homo sapiens, UniProt Q96P65); experiment: FLIPR functional screen; type: cell-based; conditions: antagonist mode
T23 construct: Millipore

[24] = biological target: T24, GPR68 (Homo sapiens, UniProt Q15743); experiment: FLIPR functional screen; type: cell-based; conditions: antagonist mode
T24 construct: Millipore

[25] = biological target: T25, LPA1 (Homo sapiens, UniProt Q92633); experiment: FLIPR functional screen; type: cell-based; conditions: antagonist mode
T25 construct: Millipore
T25 sequence (Q92633 whole entry, species assumed): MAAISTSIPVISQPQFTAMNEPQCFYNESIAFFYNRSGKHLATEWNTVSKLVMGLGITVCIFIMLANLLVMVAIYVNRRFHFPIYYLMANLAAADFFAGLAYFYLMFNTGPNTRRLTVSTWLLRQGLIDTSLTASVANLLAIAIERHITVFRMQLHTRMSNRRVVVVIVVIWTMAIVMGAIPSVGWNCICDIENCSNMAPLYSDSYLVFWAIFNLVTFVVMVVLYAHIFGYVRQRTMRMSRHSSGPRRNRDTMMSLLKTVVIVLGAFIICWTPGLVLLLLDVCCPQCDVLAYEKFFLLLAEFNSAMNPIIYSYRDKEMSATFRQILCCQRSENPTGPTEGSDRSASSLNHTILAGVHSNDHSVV

[26] = biological target: T26, M1 (Homo sapiens, UniProt P11229); experiment: FLIPR functional screen; type: cell-based; conditions: antagonist mode
T26 construct: Millipore

[27] = biological target: T27, M2 (Homo sapiens, UniProt P08172); experiment: FLIPR functional screen; type: cell-based; conditions: antagonist mode
T27 construct: Millipore

[28] = biological target: T28, M3 (Homo sapiens, UniProt P20309); experiment: FLIPR functional screen; type: cell-based; conditions: antagonist mode
T28 construct: Millipore
T28 sequence (P20309 whole entry): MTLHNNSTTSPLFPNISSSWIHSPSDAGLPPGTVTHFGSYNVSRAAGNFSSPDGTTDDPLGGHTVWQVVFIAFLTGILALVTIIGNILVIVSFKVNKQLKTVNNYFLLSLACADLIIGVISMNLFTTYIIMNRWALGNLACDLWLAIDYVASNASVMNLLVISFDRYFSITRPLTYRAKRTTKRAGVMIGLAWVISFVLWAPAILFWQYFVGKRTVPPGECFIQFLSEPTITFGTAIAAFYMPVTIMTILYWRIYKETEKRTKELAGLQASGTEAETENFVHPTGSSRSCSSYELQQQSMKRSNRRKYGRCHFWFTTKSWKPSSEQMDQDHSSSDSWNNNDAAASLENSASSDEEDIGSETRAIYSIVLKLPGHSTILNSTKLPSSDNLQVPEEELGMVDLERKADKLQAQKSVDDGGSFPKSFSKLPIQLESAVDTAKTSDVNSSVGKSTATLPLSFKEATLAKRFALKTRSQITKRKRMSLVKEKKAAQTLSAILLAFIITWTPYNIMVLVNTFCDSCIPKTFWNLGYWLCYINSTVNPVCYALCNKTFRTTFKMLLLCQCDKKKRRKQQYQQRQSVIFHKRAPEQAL

[29] = biological target: T29, M5 (Homo sapiens, UniProt P08912); experiment: FLIPR functional screen; type: cell-based; conditions: antagonist mode
T29 construct: Millipore

[30] = biological target: T30, NK3 (Homo sapiens, UniProt P29371); experiment: FLIPR functional screen; type: cell-based; conditions: antagonist mode
T30 construct: Millipore

[31] = biological target: T31, OPRM1 (Homo sapiens, UniProt P35372); experiment: FLIPR functional screen; type: cell-based; conditions: antagonist mode
T31 construct: Millipore
T31 sequence (P35372 whole entry, species assumed): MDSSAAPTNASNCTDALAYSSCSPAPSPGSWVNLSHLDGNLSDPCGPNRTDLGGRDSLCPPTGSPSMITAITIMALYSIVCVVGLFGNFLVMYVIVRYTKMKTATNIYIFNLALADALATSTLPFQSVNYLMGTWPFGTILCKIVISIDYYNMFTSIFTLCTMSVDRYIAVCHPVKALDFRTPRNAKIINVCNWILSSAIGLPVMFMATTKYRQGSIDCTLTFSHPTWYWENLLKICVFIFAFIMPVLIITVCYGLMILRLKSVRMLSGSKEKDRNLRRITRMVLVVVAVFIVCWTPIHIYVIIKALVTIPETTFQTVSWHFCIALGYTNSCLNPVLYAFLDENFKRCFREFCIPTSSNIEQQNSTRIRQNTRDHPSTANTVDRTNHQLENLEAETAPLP

[32] = biological target: T32, PK1 (Homo sapiens, UniProt Q8TCW9); experiment: FLIPR functional screen; type: cell-based; conditions: PK-1, antagonist mode
T32 construct: Millipore
T32 sequence (Q8TCW9 whole entry): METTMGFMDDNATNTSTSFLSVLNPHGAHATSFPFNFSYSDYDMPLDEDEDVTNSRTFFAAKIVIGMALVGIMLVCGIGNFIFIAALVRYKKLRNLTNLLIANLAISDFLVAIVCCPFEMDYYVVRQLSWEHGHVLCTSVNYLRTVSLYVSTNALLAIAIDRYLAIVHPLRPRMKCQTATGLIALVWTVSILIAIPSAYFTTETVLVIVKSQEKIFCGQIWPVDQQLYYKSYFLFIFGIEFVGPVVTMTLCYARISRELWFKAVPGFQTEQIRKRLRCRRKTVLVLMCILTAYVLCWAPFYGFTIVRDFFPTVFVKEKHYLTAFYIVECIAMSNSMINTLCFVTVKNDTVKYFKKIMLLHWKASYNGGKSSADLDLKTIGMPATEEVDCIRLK

[33] = biological target: T33, S1P1 (Homo sapiens, UniProt P21453); experiment: FLIPR functional screen; type: cell-based; conditions: antagonist mode
T33 construct: Millipore

[34] = biological target: T34, S1P2 (Homo sapiens, UniProt O95136); experiment: FLIPR functional screen; type: cell-based; conditions: antagonist mode
T34 construct: Millipore
T34 sequence (O95136 whole entry, species assumed): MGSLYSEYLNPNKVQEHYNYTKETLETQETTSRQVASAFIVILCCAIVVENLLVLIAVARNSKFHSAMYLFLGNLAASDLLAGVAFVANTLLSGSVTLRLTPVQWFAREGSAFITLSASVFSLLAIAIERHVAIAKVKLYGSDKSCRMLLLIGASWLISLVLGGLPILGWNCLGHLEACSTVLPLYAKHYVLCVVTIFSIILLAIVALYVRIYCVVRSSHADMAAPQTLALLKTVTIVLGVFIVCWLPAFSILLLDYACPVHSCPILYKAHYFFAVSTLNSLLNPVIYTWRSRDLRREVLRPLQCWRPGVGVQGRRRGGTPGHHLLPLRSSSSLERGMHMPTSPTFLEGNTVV

[35] = biological target: T35, SECRETIN (Homo sapiens, UniProt P47872); experiment: FLIPR functional screen; type: cell-based; conditions: antagonist mode
T35 construct: Millipore

[36] = biological target: T36, SST3 (Homo sapiens, UniProt P32745); experiment: FLIPR functional screen; type: cell-based; conditions: antagonist mode
T36 construct: Millipore

[37] = biological target: T37, V2 (Homo sapiens, UniProt P30518); experiment: FLIPR functional screen; type: cell-based; conditions: antagonist mode
T37 construct: Millipore

[38] = biological target: T38, Y2 (Homo sapiens, UniProt P49146); experiment: FLIPR functional screen; type: cell-based; conditions: antagonist mode
T38 construct: Millipore

T2 sequence (Q9NS75 whole entry): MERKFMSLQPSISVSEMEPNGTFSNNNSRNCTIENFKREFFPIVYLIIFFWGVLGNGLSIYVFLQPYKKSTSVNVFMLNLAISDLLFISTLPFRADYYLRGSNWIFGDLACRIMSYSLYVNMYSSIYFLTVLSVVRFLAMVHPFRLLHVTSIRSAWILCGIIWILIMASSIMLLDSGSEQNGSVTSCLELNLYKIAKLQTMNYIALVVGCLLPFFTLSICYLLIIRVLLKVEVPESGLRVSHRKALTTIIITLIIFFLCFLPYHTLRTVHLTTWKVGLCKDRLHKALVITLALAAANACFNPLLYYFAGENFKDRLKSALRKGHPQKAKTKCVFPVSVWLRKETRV
T1 sequence (Q9Y271 whole entry): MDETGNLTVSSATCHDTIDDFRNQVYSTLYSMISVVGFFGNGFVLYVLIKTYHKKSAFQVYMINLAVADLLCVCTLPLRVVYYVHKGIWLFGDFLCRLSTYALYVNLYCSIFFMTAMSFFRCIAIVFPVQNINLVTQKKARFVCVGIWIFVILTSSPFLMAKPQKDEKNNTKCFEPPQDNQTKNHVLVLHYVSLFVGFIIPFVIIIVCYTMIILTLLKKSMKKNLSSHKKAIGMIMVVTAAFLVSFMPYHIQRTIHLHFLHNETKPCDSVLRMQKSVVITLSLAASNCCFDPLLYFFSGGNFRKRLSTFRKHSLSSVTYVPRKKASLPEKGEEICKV

CCN1C(=O)N2Cc3cc(OC)cc(OC)c3[C@@H](C)C=C2C12CCN(Cc1cccn1C)CC2 [ER-819924-01]
% INHIBITION ([1]; CONC. 0.1 μm): −1%
% INHIBITION ([1]; CONC. 1 μm): −5%
% INHIBITION ([2]; CONC. 0.1 μm): 3%
% INHIBITION ([2]; CONC. 1 μm): 0%
% INHIBITION ([3]; CONC. 0.1 μm): −3%
% INHIBITION ([3]; CONC. 1 μm): −14%
IC50 [4]: 0.028 µM
inhibition at 1 µM [5]: -12.5%
inhibition at 1 µM [6]: 2.2%
inhibition at 1 µM [7]: 6.9%
inhibition at 1 µM [8]: 10.6%
inhibition at 1 µM [9]: 3.3%
inhibition at 1 µM [10]: -15.3%
inhibition at 1 µM [11]: -8.2%
inhibition at 1 µM [12]: 6.2%
inhibition at 1 µM [13]: 10.5%
inhibition at 1 µM [14]: -0.4%
inhibition at 1 µM [15]: 2.2%
inhibition at 1 µM [16]: -13.4%
inhibition at 1 µM [17]: -9.1%
inhibition at 1 µM [18]: -3.2%
inhibition at 1 µM [19]: 4.1%
inhibition at 1 µM [20]: 1.7%
inhibition at 1 µM [21]: 3.9%
inhibition at 1 µM [22]: -14.9%
inhibition at 1 µM [23]: 0.4%
inhibition at 1 µM [24]: 13.4%
inhibition at 1 µM [25]: 8%
inhibition at 1 µM [26]: 3.6%
inhibition at 1 µM [27]: 1.5%
inhibition at 1 µM [28]: 8.9%
inhibition at 1 µM [29]: 10.1%
inhibition at 1 µM [30]: -2.2%
inhibition at 1 µM [31]: 35%
inhibition at 1 µM [32]: -4.3%
inhibition at 1 µM [33]: 3.9%
inhibition at 1 µM [34]: -0.5%
inhibition at 1 µM [35]: 11.3%
inhibition at 1 µM [36]: -19.7%
inhibition at 1 µM [37]: -24.8%
inhibition at 1 µM [38]: -1%
